Values of other authors, collected in patent US12611399B2, “Movement disorders” (Definium Therapeutics US, Inc., priority 2021, dated 2026).

Assays:
Conditions in all cases: result in words
D1-3 receptors = test system: D1-3 receptors
[1] = test system: serotonin 5-HT1 receptors
5-HT transporter (SERT) = 5-HT transporter (SERT) (Homo sapiens, UniProt P31645)
5-HT2A receptor = 5-HT2A receptor (Homo sapiens, UniProt P28223)
D2 receptors = D2 receptors (Homo sapiens, UniProt P14416)
Chain of D2 receptors (P14416 whole entry): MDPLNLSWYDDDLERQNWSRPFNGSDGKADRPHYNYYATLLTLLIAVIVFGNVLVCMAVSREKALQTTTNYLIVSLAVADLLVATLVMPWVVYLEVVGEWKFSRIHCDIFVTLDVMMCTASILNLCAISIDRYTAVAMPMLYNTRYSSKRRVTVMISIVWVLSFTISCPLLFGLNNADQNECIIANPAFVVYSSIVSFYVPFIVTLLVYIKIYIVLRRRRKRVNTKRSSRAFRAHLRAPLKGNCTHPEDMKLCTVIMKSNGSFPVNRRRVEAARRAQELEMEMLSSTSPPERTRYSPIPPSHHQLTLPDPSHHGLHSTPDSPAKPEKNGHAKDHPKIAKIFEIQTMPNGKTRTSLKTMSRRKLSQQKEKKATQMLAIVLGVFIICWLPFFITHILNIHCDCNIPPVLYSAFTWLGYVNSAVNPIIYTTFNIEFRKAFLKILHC

Chain of 5-HT transporter (SERT) (P31645 whole entry, species assumed): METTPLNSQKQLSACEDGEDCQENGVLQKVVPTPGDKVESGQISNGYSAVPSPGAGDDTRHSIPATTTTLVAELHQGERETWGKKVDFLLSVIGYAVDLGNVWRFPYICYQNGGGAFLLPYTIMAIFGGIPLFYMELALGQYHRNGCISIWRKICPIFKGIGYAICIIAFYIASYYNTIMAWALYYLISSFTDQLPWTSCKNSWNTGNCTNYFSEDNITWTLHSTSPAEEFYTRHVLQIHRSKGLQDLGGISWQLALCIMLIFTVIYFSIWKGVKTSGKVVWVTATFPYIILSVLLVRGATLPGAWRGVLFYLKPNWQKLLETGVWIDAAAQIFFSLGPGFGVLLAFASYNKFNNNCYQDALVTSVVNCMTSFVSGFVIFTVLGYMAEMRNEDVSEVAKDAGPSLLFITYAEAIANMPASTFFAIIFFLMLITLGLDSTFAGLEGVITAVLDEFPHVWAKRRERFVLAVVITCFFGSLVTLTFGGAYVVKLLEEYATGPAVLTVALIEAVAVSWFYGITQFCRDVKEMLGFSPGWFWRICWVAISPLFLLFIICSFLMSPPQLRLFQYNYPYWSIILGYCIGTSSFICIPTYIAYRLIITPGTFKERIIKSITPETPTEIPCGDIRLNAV
Chain of 5-HT2A receptor (P28223 whole entry): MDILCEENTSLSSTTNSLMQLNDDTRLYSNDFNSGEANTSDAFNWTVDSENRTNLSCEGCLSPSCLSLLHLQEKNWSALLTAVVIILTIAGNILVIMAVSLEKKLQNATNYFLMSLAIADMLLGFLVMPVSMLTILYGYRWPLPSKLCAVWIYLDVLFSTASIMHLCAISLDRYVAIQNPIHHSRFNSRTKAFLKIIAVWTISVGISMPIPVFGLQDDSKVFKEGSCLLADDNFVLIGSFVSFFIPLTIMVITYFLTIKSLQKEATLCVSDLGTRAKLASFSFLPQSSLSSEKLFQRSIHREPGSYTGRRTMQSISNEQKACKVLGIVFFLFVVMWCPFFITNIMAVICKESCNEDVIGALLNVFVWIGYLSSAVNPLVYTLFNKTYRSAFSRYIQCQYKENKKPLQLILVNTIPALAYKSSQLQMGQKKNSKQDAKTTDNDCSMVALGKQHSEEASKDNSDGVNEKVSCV

SMILES | stimulation of D1-3 receptors (D1-3 receptors) | agonist potency at serotonin 5-HT1 receptors [1] | interaction with the 5-HT transporter (SERT) (5-HT transporter (SERT)) | stimulation of the 5-HT2A receptor (5-HT2A receptor) | affinity for D2 receptors (D2 receptors)
CCN(CC)C(=O)[C@@H]1C=C2c3cccc4[nH]cc(c34)C[C@H]2N(C)C1 [LSD, lysergic acid diethylamide] | stimulates | potent agoinsts | does not interact | potently stimulates | –
COc1cc(CCN)cc(OC)c1OC [mescaline] | – | low potency | – | – | no affinity
CN(C)CCc1c[nH]c2cccc(O)c12 [psilocin] | – | potent agoinsts | inhibits | – | –
